Laboratory results published in BindingDB's records for doi:10.3109/14756366.2011.599323 (China Pharmaceutical University, 2012).
Where a SMILES comes first, the peptide text is derived from it.

Assays:
[1] = target: Disintegrin and metalloproteinase domain-containing protein 17 (Homo sapiens, UniProt P78536); assay: TACE Activity Assay; conditions: pH 9.0
Description: TACE was purchased as an active form enzyme (R&D Systems). Hydrolysis of the TACE-substrate Mca-Pro-Leu-Ala-Gln-Ala-Val-Dpa-Arg-Ser-Ser-Ser-Arg-NH (substrateIII, R&D Systems Europe Ltd) was monitored by measuring the increase in fluorescence (excitation wavelength = 320 nm, emission wavelength = 405 nm). TACEassays were performed at 37°C in 100 μl assay buffer. The reaction was started by adding 4 μl TACE stock solution (1 ng/μl) to a 100 μl reaction system with a final substrate concentration of 10 μM, after which the rate of substrate hydrolysis was monitored.

[2] = target: Matrix metalloproteinase-9 (Homo sapiens, UniProt P14780); assay: MMP-9 Activity Assay; conditions: pH 7.4; 37 °C
Description: Recombinant human MMP-9 was expressed in Sf9 insect cells and purified by gelatin-Sepharose affinity chromatography as described previously16,17. It was activated with 0.01 μM of the catalytic domain of MMP-3 (cd-MMP-3, Calbiochem) in assay buffer (100 mM Tris/HCl, pH 7.4, 100 mM NaCl, 10 mM CaCl2 and 0.01% Tween-20) at 92 ng/μl (1 μM) as a stock solution as described8. Hydrolysis of the substrate Mca-Pro-Leu-Gly-Leu-Dpa-Ala-Arg-NH2 (substrate I, R&D Systems Europe Ltd) was monitored by measuring the increase in fluorescence (excitation wavelength = 328 nm, emission wavelength = 392 nm) [Whittaker et al., Chem. Rev., 99:2735-2776]. All assays were performed at 37°C in 100 μl assay buffer. The reaction was started by adding 10 μl gelatinase B stock solution (0.92 ng/μl) to a 100 μl reaction system with a substrate concentration of 10 μM, after which the rate of substrate hydrolysis was monitored.

[3] = target: Neutrophil collagenase (Homo sapiens, UniProt P22894); assay: MMP-8 Activity Assay; conditions: pH 7.4; 37 °C
Description: Recombinant human MMP-8 was purchased as an active form enzyme (Sino Biological Inc.). The enzyme activity was detected with the same fluorogenic peptidesubstrate as that for MMP-9. All MMP-8 assays were performed at 37°C in 100 μl assay buffer with 20 μl recombinant human MMP-8 (2 ng/μl). The final substrateconcentration was 10 μM.

[4] = target: Stromelysin-1 (Homo sapiens, UniProt P08254); assay: MMP-3 Activity Assay; conditions: pH 7.4; 37 °C
Description: The activity of recombinant human MMP-3 (catalytic domain, Calbiochem) was detected with the substrate Mca-Arg-Pro-Lys-Pro-Val-Glu-Nval-Trp-Arg-Lys(Dnp)-NH2 (substrate II, R&D Systems Europe Ltd) (excitation wavelength = 320 nm, emission wavelength = 405 nm). These assays were performed at 37°C in 100 μl assay buffer. The reaction was started by adding 10 μl MMP-3 stock solution (1 ng/μl) to a 100 μl reaction system with a final substrate concentration of 10 μM, after which the rate of substrate hydrolysis was monitored.

Chain of Neutrophil collagenase (P22894 whole entry): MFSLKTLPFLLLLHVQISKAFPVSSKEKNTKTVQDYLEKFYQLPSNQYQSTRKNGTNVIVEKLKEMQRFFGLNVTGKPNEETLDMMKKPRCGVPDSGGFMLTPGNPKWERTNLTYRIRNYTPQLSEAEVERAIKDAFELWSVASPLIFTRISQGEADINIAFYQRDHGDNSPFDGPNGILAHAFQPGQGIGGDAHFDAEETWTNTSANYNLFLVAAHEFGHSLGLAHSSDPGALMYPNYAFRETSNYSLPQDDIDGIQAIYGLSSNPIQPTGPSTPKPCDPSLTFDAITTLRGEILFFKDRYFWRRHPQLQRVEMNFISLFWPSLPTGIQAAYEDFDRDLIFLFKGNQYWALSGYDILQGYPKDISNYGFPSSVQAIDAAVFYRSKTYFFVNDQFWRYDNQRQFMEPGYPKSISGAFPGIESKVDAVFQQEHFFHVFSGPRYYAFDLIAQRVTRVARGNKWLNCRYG
Chain of Disintegrin and metalloproteinase domain-containing protein 17 (P78536 whole entry, the tested form may be a part): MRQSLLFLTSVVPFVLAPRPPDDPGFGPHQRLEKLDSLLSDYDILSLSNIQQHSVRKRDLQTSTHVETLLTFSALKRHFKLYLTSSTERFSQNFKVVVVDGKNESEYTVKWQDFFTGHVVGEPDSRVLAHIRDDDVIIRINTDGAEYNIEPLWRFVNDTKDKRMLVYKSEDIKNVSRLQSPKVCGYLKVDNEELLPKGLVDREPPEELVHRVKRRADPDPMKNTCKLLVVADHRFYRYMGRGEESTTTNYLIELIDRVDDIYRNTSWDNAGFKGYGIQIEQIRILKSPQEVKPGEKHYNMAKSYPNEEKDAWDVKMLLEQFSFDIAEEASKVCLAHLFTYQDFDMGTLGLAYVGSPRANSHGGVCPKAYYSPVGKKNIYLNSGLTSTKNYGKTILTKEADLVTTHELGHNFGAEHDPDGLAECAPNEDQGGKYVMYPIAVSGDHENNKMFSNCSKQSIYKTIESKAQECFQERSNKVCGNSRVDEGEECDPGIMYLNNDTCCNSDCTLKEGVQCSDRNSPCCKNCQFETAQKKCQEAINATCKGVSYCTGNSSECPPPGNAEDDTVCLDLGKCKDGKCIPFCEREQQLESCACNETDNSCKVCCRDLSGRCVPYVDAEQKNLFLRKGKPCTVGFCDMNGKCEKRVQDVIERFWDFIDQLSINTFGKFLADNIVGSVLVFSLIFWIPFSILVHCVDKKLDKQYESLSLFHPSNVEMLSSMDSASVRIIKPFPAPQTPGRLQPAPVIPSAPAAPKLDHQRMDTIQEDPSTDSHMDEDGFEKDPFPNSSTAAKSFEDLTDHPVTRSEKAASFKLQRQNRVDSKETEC
Chain of Matrix metalloproteinase-9 (P14780 whole entry, the tested form may be a part): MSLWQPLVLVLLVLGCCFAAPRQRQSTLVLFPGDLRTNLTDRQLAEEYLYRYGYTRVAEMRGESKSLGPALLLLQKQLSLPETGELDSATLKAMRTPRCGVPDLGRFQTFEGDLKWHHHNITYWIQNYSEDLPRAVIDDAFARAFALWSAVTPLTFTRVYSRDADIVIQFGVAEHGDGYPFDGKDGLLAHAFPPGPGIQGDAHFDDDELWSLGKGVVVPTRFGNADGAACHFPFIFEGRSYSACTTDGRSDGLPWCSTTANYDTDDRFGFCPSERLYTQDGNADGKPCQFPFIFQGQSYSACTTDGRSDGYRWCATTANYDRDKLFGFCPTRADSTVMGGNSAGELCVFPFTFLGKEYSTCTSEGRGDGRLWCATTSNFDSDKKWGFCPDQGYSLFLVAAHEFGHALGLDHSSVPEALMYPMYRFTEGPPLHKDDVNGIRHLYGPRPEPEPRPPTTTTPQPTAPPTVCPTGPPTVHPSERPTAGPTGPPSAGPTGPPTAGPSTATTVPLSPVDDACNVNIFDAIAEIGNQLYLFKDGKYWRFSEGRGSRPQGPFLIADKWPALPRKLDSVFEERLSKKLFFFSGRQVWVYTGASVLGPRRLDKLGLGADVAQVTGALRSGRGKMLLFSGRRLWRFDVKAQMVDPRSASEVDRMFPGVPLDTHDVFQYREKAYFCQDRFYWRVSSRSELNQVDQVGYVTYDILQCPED
Chain of Stromelysin-1 (P08254 whole entry, the tested form may be a part): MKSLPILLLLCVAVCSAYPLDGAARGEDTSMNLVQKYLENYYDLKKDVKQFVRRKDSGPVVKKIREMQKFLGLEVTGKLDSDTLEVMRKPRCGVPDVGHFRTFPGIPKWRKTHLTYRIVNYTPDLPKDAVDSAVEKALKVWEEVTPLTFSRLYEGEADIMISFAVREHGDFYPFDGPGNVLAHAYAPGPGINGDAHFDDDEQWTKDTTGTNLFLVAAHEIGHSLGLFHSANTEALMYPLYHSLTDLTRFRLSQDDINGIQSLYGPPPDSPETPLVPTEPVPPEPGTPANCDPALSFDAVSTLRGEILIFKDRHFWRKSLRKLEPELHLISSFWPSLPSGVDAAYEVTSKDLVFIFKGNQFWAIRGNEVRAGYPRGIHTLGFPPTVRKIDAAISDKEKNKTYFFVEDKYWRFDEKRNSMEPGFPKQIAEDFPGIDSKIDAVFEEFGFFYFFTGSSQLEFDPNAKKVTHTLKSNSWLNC

| Structure (SMILES) | IC50 [1] [nM] | IC50 [2] [nM] | IC50 [3] [nM] | IC50 [4] [nM] |
| --- | --- | --- | --- | --- |
| N=C(N)NCCC[C@H](NC(=O)[C@H](Cc1ccc(-c2ccccc2)cc1)NC(=O)[C@@H](CS)NC(=O)[C@@H](N)CCCNC(=N)N)C(=O)O [Arg-(D-Cys)-Bip-Arg] (HELM PEPTIDE1{R.[dC].[O=C([C@H](Cc1ccc(-c2ccccc2)cc1)N[*:1])[*:2]].R}$$$$V2.0) | 2500 | 900 | 900 | 22500 |
| N=C(N)NCCC[C@H](N)C(=O)N[C@@H](CS)C(=O)N[C@H](Cc1ccc(-c2ccccc2)cc1)C(=O)N[C@H](CCCNC(=N)N)C(=O)O [Arg-Cys-(D-Bip)-(D-Arg)] (HELM PEPTIDE1{R.C.[O=C([C@@H](Cc1ccc(-c2ccccc2)cc1)N[*:1])[*:2]].[dR]}$$$$V2.0) | 20000 | 750 | 2300 | 19500 |
